Assay: xn = mol fraction of the nth substance listed

CO/N=C(\C(=O)N[C@@H]1C(=O)N2C(C(=O)[O-])=C(CSc3nc(=O)c(=O)[n-]n3C)CS[C@H]12)c1csc(N)n1.[Na+].[Na+] + CCCC[n+]1ccc(C)cc1.[Br-] + O
viscosity [mPa·s], 100 kPa
Details | x1 = 0.0003495, x2 = 0 | x1 = 0.0008732, x2 = 0 | x1 = 0.001391, x2 = 0 | x1 = 0.002502, x2 = 0 | x1 = 0.00312, x2 = 0 | x1 = 0.003888, x2 = 0 | x1 = 0.004767, x2 = 0 | x1 = 0.005484, x2 = 0
288.15 K | 1.196 | 1.273 | 1.365 | 1.604 | 1.745 | 1.964 | 2.205 | 2.45
293.15 K | 1.053 | 1.12 | 1.2 | 1.399 | 1.527 | 1.701 | 1.918 | 2.122
298.15 K | 0.935 | 0.994 | 1.062 | 1.231 | 1.348 | 1.495 | 1.674 | 1.858
303.15 K | 0.829 | 0.885 | 0.945 | 1.1 | 1.195 | 1.323 | 1.48 | 1.638
308.15 K | 0.744 | 0.794 | 0.849 | 0.982 | 1.07 | 1.184 | 1.322 | 1.455

CC[n+]1ccccc1.[Cl-] + CCCC[n+]1ccccc1.[Br-]
viscosity [mPa·s], 101 kPa
Details | x1 = 0.118 | x1 = 0.197 | x1 = 0.318 | x1 = 0.384 | x1 = 0.492 | x1 = 0.585 | x1 = 0.686 | x1 = 0.81 | x1 = 0.902
373.1 K | – | – | – | 61 | 54.1 | 48.8 | 43.7 | 38 | –
378.1 K | – | – | 53.6 | 50.2 | 44.7 | 40.6 | 36.5 | 32 | –
383.1 K | 53.8 | 49.7 | 44 | 41.4 | 37.1 | 33.8 | 30.6 | 27.1 | –
388.1 K | 44 | 40.8 | 36.4 | 34.3 | 31 | 28.4 | 25.8 | 23 | 20.9
393.1 K | 36.2 | 33.7 | 30.3 | 28.6 | 26 | 24 | 21.9 | 19.7 | 18
398.1 K | 30 | 28.1 | 25.4 | 24.1 | 22 | 20.4 | 18.8 | 17 | 15.59
403.1 K | 25.1 | 23.6 | 21.5 | 20.5 | 18.8 | 17.5 | 16.19 | 14.73 | 13.59
408.1 K | 21.2 | 20.1 | 18.4 | 17.5 | 16.2 | 15.19 | 14.08 | 12.9 | 11.96
413.1 K | 18.2 | 17.2 | 15.87 | 15.16 | 14.1 | 13.27 | 12.36 | 11.39 | 10.58
418.1 K | 15.69 | 14.92 | 13.82 | 13.25 | 12.37 | 11.7 | 10.93 | 10.12 | 9.43
423.1 K | 13.69 | 13.06 | 12.15 | 11.69 | 10.96 | 10.4 | 9.75 | 9.08 | 8.49
428.1 K | 12.07 | 11.55 | 10.79 | 10.4 | 9.79 | 9.32 | 8.77 | 8.21 | 7.68
433.1 K | 10.76 | 10.32 | 9.68 | 9.35 | 8.83 | 8.44 | 7.96 | 7.48 | 7.02
438.1 K | 9.69 | 9.31 | 8.77 | 8.48 | 8.04 | 7.7 | 7.29 | 6.88 | 6.46
443.1 K | 8.82 | 8.5 | 8.03 | 7.78 | 7.39 | 7.11 | 6.74 | 6.38 | 6

CC[n+]1ccccc1.[Cl-] + CCCC[n+]1ccccc1.[Cl-]
101 kPa
Details | viscosity [mPa·s]
388.1 K, x1 = 0.804 | 23.2
393.1 K, x1 = 0.504 | 27.4
393.1 K, x1 = 0.804 | 19.8
398.1 K, x1 = 0.504 | 23.4
398.1 K, x1 = 0.702 | 18.5
398.1 K, x1 = 0.804 | 17
403.1 K, x1 = 0.804 | 14.67
408.1 K, x1 = 0.198 | 22.8
413.1 K, x1 = 0.198 | 19.7
413.1 K, x1 = 0.795 | 11.06
418.1 K, x1 = 0.504 | 13.42
423.1 K, x1 = 0.388 | 12.25
428.1 K, x1 = 0.702 | 8.33
428.1 K, x1 = 0.795 | 7.76
433.1 K, x1 = 0.597 | 8.38
438.1 K, x1 = 0.302 | 9.51
438.1 K, x1 = 0.702 | 6.8
443.1 K, x1 = 0.504 | 8.1
443.1 K, x1 = 0.804 | 6.06

CO + CCCC[n+]1ccn(C)c1.F[B-](F)(F)F
101 kPa, x1 = 1
Details | viscosity [mPa·s]
303.15 K | 0.519
333.15 K | 0.363

ClCCl + CCCC[n+]1ccn(C)c1.F[B-](F)(F)F
298.15 K
Details | electrical conductivity, 101 kPa [S/m] | viscosity, 101 kPa [mPa·s] | viscosity, 101.33 kPa [mPa·s]
x1 = 0.1 | 0.265 | 85 | –
x1 = 0.1923 | 0.348 | 63.1 | –
x1 = 0.2841 | 0.45 | 46.1 | –
x1 = 0.3884 | 0.592 | 31.2 | –
x1 = 0.4507 | – | – | 14.3
x1 = 0.4878 | 0.772 | 20 | –
x1 = 0.5882 | 0.99 | 12.3 | –
x1 = 0.6897 | 1.18 | 6.73 | –
x1 = 0.756 | 1.26 | 4 | –
x1 = 0.8395 | 1.18 | 1.96 | –

ClCCl + CCCC[n+]1ccn(C)c1.F[P-](F)(F)(F)(F)F
298.15 K, 101 kPa
Details | electrical conductivity [S/m] | viscosity [mPa·s]
x1 = 0.2451 | 0.394 | 89
x1 = 0.4351 | 0.731 | 34.7

c1ccccc1 + CCCC[n+]1ccn(C)c1.N#C[S-]
100 kPa, x1 = 1
Details | viscosity [mPa·s]
298.15 K | 0.605
308.15 K | 0.527
318.15 K | 0.466
328.15 K | 0.363

CO + CCCC[n+]1ccn(C)c1.O=S(=O)([N-]S(=O)(=O)C(F)(F)F)C(F)(F)F
Details | viscosity [mPa·s]
298 K, 100 kPa, x2 = 0 | 0.534

ClCCl + CCCC[n+]1ccn(C)c1.O=S(=O)([N-]S(=O)(=O)C(F)(F)F)C(F)(F)F
298 K, 101 kPa
Details | electrical conductivity [S/m]
x1 = 0.8744 | 1.36
x1 = 0.9287 | 0.98
x1 = 0.9459 | 0.797

c1ccccc1 + CCCC[n+]1ccn(C)c1.O=S(=O)([O-])C(F)(F)F
100 kPa, x1 = 1
Details | viscosity [mPa·s]
308.15 K | 0.527
318.15 K | 0.466

CO + CCCC[n+]1ccn(C)c1.[Cl-]
Details | viscosity [mPa·s]
308.15 K, 101 kPa, x1 = 1 | 0.49

C=CC[n+]1ccn(C)c1.O=S(=O)([N-]S(=O)(=O)C(F)(F)F)C(F)(F)F + CCCO
298.15 K, 100 kPa
Details | viscosity [mPa·s]
x1 = 0.2 | 5.11
x1 = 0.5 | 10.41
x1 = 0.7 | 16.23
x1 = 0.8 | 20.34
x1 = 0.9 | 25.56

CC(O)C(=O)[O-].C[N+](C)(C)CCO + CCCO + O
100 kPa, x1 = 0.00408, x2 = 0.5431
Details | viscosity [mPa·s]
288.15 K | 3.551
298.15 K | 2.585
308.15 K | 1.943
